{
  "source": "paper PMC12668308",
  "about": "“A Novel Antimalarial Agent that Inhibits Protein Synthesis in Plasmodium falciparum” (Angewandte Chemie (International Ed. in English), 2025)",
  "data": [
    {"tested_on": "P. falciparum NF54 strain", "assay": "[3H]-hypoxanthine incorporation assay, asexual blood stage", "format": "cell-based, Plasmodium falciparum", "details": "PfNF54 IC50", "protocol": "(§1) P. falciparum asexual blood stage parasites were cultured in human red blood cells (RBC, Blutspende SRK, Zurich) at a hematocrit of 5% in RPMI 1640 medium. The RPMI 1640 medium (ThermoFisher Scientific #51800−043) was supplemented with the following: 24 mM NaHCO3 (pH 7.3, Sigma-Aldrich #31437−500G-R), 25 mM Hepes (Sigma-Aldrich #H4034−500G), 0.36 mM hypoxanthine (Sigma-Aldrich # H9377−25G), 100 µg mL^-1 neomycin (Sigma-Aldrich #N6386−100G) and 0.5% Albumax II (Thermo Fisher #11021−045). Additionally, 2 mM choline chloride (279 mg/L, Sigma-Aldrich #C7527−100G) was added to the culture to block the induction of sexual commitment as described. ^[31^] The RPMI 1640 medium and components were dissolved in water (Milli-Q purified), stirred for at least 3 h, and then sterile filtered (0.22 μm pore size) with a bottle top filter (Corning # 431118). Parasite cultures were maintained in an atmosphere of 3% O2, 4% CO2, and 93% N2 in air-tight chambers at 37 °C. The [^3H]-hypoxanthine incorporation assay was used to test compound activity in the specific parasite lines as described.^[32^] Briefly, compounds were dissolved in DMSO (10 mM) and diluted in a hypoxanthine-free culture medium. A limiting dilution was performed over a 64-fold range (6-step twofold dilution) in a 96-well plate in duplicates. For every starting concentration, a limiting dilution was performed over a 64-fold range (6-step twofold dilution) in a 96-well plate in two biological duplicates. Parasites were added at 100 µL to each well containing the compound to obtain a final parasitemia of 0.3% and haematocrit of 1.25%. The plates were incubated for 48 h before 0.25 µCi of [^3H]-hypoxanthine was added per well for an additional 24 h. Parasites were harvested on a glass-fiber filter with a Microbeta FilterMate cell harvester (Perkin Elmer, Waltham, USA) and radioactivity was counted using a MicroBeta2 liquid scintillation counter (Perkin Elmer, Waltham, US). […] The fifty percent inhibitory concentration (IC50) was calculated by using nonlinear, four parameter (variable slope) curve fitting as described ^[33^] after importing into GraphPad Prism (version 8.3.0).", "values": [
      {"compound": "O=C(Nc1cc(S(=O)(=O)N2CCCC2)ccc1O)c1cccc(Oc2cc(C(F)(F)F)ccn2)c1", "note": "[Compound 23, N-(2-Hydroxy-5-(pyrrolidin-1-ylsulfonyl)phenyl)-3-((4-(trifluoromethyl)pyridin-2-yl)oxy)benzamide]", "fold increased activity compared to the initial hit molecule 1": "about 8 fold"}
    ]},
    {"tested_on": "P. falciparum NF54 strain", "assay": "[3H]-hypoxanthine incorporation assay, asexual blood stage", "format": "cell-based, Plasmodium falciparum", "details": "Plasmodium falciparum, NF54, asexual blood stage; mean ± s.d.; read-out: PfNF54 IC50 ± s.d.", "protocol": "as §1", "units": {"IC50": "nM"}, "values": [
      {"compound": "COc1ccc(S(=O)(=O)N2CCCC2)cc1NC(=O)c1cccc(Oc2ccccc2)c1", "note": "[Compound 2, N-(2-Methoxy-5-(pyrrolidin-1-ylsulfonyl)phenyl)-3-phenoxybenzamide]", "IC50": "> 10000"},
      {"compound": "COc1ccc(S(=O)(=O)N2CCCC2)cc1N(C)C(=O)c1cccc(Oc2ccccc2)c1", "note": "[Compound 3, N-(2-methoxy-5-(pyrrolidin-1-ylsulfonyl)phenyl)-N-methyl-3-phenoxybenzamide]", "IC50": "> 10000"},
      {"compound": "CN(C(=O)c1cccc(Oc2ccccc2)c1)c1cc(S(=O)(=O)N2CCCC2)ccc1O", "note": "[Compound 4, N-(2-Hydroxy-5-(pyrrolidin-1-ylsulfonyl)phenyl)-N-methyl-3-phenoxybenzamide]", "IC50": "> 10000"},
      {"compound": "O=C(Nc1cccc(S(=O)(=O)N2CCCC2)c1)c1cccc(Oc2ccccc2)c1", "note": "[Compound 5, 3-Phenoxy-N-(3-(pyrrolidin-1-ylsulfonyl)phenyl)benzamide]", "IC50": "4930 ± 97.8"},
      {"compound": "NS(=O)(=O)c1ccc(O)c(NC(=O)c2cccc(Oc3ccccc3)c2)c1", "note": "[Compound 6, N-(2-Hydroxy-5-sulfamoylphenyl)-3-phenoxybenzamide]", "IC50": "777 ± 86"},
      {"compound": "CCS(=O)(=O)c1ccc(O)c(NC(=O)c2cccc(Oc3ccccc3)c2)c1", "note": "[Compound 7, N-(5-(Ethylsulfonyl)-2-hydroxyphenyl)-3-phenoxybenzamide]", "IC50": "217 ± 42.4"},
      {"compound": "CCCCNS(=O)(=O)c1ccc(O)c(NC(=O)c2cccc(Oc3ccccc3)c2)c1", "note": "[Compound 8, N-(5-(N-Butylsulfamoyl)-2-hydroxyphenyl)-3-phenoxybenzamide]", "IC50": "1910 ± 254"},
      {"compound": "O=C(Nc1cc(S(=O)(=O)N2CCCCC2)ccc1O)c1cccc(Oc2ccccc2)c1", "note": "[Compound 9, N-(2-Hydroxy-5-(piperidin-1-ylsulfonyl)phenyl)-3-phenoxybenzamide]", "IC50": "574 ± 66.5"},
      {"compound": "CC1(C)CCN(S(=O)(=O)c2ccc(O)c(NC(=O)c3cccc(Oc4ccccc4)c3)c2)C1", "note": "[Compound 10, N-(5-((3,3-diMethylpyrrolidin-1-yl)sulfonyl)-2-hydroxyphenyl)-3-phenoxybenzamide]", "IC50": "1410 ± 147"},
      {"compound": "CC1CCN(S(=O)(=O)c2ccc(O)c(NC(=O)c3cccc(Oc4ccccc4)c3)c2)CC1", "note": "[Compound 11, N-(2-Hydroxy-5-((4-methylpiperidin-1-yl)sulfonyl)phenyl)-3-phenoxybenzamide]", "IC50": "1030 ± 116"},
      {"compound": "O=C(Nc1cc(S(=O)(=O)N2CCOCC2)ccc1O)c1cccc(Oc2ccccc2)c1", "note": "[Compound 12, N-(2-Hydroxy-5-(morpholinosulfonyl)phenyl)-3-phenoxybenzamide]", "IC50": "197 ± 28"},
      {"compound": "O=C(Nc1cc(S(=O)(=O)NCC2CCCCC2)ccc1O)c1cccc(Oc2ccccc2)c1", "note": "[Compound 13, N-(5-(N-(Cyclohexylmethyl)sulfamoyl)-2-hydroxyphenyl)-3-phenoxybenzamide]", "IC50": "> 10000"},
      {"compound": "O=C(Nc1cc(S(=O)(=O)NCc2ccccc2)ccc1O)c1cccc(Oc2ccccc2)c1", "note": "[Compound 14, N-(5-(N-Benzylsulfamoyl)-2-hydroxyphenyl)-3-phenoxybenzamide]", "IC50": "2780 ± 389"},
      {"compound": "O=C(Nc1cc(S(=O)(=O)N2CCCC2)ccc1O)c1ccc(Oc2ccccc2)cc1", "note": "[Compound 15, N-(2-Hydroxy-5-(pyrrolidin-1-ylsulfonyl)phenyl)-4-phenoxybenzamide]", "IC50": "539 ± 92.2"},
      {"compound": "O=C(Nc1cc(S(=O)(=O)N2CCCC2)ccc1O)c1cccc(Oc2cccc(F)c2)c1", "note": "[Compound 16, 3-(3-Fluorophenoxy)-N-(2-hydroxy-5-(pyrrolidin-1-ylsulfonyl)phenyl)benzamide]", "IC50": "361 ± 83"},
      {"compound": "O=C(Nc1cc(S(=O)(=O)N2CCCC2)ccc1O)c1cccc(Oc2ccc(Cl)c(C(F)(F)F)c2)c1", "note": "[Compound 17, 3-(4-Chloro-3-(trifluoromethyl)phenoxy)-N-(2-hydroxy-5-(pyrrolidin-1-ylsulfonyl)phenyl)benzamide]", "IC50": "2315 ± 8.5"},
      {"compound": "Cc1ccc(C(C)C)cc1Oc1cccc(C(=O)Nc2cc(S(=O)(=O)N3CCCC3)ccc2O)c1", "note": "[Compound 18, N-(2-hydroxy-5-(pyrrolidin-1-ylsulfonyl)phenyl)-3-(5-isopropyl-2-methylphenoxy)benzamide]", "IC50": "1500 ± 81.2"},
      {"compound": "O=C(Nc1cc(S(=O)(=O)N2CCCC2)ccc1O)c1cccc(Oc2ccccn2)c1", "note": "[Compound 19, N-(2-Hydroxy-5-(pyrrolidin-1-ylsulfonyl)phenyl)-3-(pyridin-2-yloxy)benzamide]", "IC50": "1450 ± 80"},
      {"compound": "O=C(Nc1cc(S(=O)(=O)N2CCCC2)ccc1O)c1cccc(Oc2cccc(Cl)n2)c1", "note": "[Compound 20, 3-((6-Chloropyridin-2-yl)oxy)-N-(2-hydroxy-5-(pyrrolidin-1-ylsulfonyl)phenyl)benzamide]", "IC50": "746 ± 21.3"},
      {"compound": "O=C(Nc1cc(S(=O)(=O)N2CCCC2)ccc1O)c1cccc(Oc2cccc(C(F)(F)F)n2)c1", "note": "[Compound 21, N-(2-Hydroxy-5-(pyrrolidin-1-ylsulfonyl)phenyl)-3-((6-(trifluoromethyl)pyridin-2-yl)oxy)benzamide]", "IC50": "> 10000"},
      {"compound": "Cc1cc(C(F)(F)F)cc(Oc2cccc(C(=O)Nc3cc(S(=O)(=O)N4CCCC4)ccc3O)c2)n1", "note": "[Compound 22, N-(2-hydroxy-5-(pyrrolidin-1-ylsulfonyl)phenyl)-3-((6-methyl-4-(trifluoromethyl)pyridin-2-yl)oxy)benzamide]", "IC50": "216 ± 32.3"},
      {"compound": "O=C(Nc1cc(S(=O)(=O)N2CCCC2)ccc1O)c1cccc(Oc2cc(C(F)(F)F)ccn2)c1", "note": "[Compound 23, N-(2-Hydroxy-5-(pyrrolidin-1-ylsulfonyl)phenyl)-3-((4-(trifluoromethyl)pyridin-2-yl)oxy)benzamide]", "IC50": 69},
      {"compound": "CC(C)c1ccc(O)c(NC(=O)c2cccc(Oc3cc(C(F)(F)F)ccn3)c2)c1", "note": "[Compound 25, N-(2-Hydroxy-5-isopropylphenyl)-3-((4-(trifluoromethyl)pyridin-2-yl)oxy)benzamide]", "IC50": "34 ± 4"},
      {"compound": "O=C(Nc1cc(-n2cnnc2)ccc1O)c1cccc(Oc2cc(C(F)(F)F)ccn2)c1", "note": "[Compound 26, N-(2-Hydroxy-5-(4H-1,2,4-triazol-4-yl)phenyl)-3-((4-(trifluoromethyl)pyridin-2-yl)oxy)benzamide]", "IC50": "158 ± 15.6"},
      {"compound": "CCN(CC)CCCNCc1ccc(O)c(NC(=O)c2cccc(Oc3cc(C(F)(F)F)ccn3)c2)c1", "note": "[Compound 28, N-(5-(((3-(diEthylamino)propyl)amino)methyl)-2-hydroxyphenyl)-3-((4-(trifluoromethyl)pyridin-2-yl)oxy)benzamide]", "IC50": "41 ± 17.2"},
      {"compound": "CN(Cc1ccc(O)c(NC(=O)c2cccc(Oc3cc(C(F)(F)F)ccn3)c2)c1)C1CCCCC1", "note": "[Compound 29, N-(5-((Cyclohexyl(methyl)amino)methyl)-2-hydroxyphenyl)-3-((4-(trifluoromethyl)pyridin-2-yl)oxy)benzamide]", "IC50": "7.6 ± 1.8"},
      {"compound": "O=C(Nc1cc(CN2CCOCC2)ccn1)c1cccc(Oc2cc(C(F)(F)F)ccn2)c1", "note": "[Compound 35, N-(4-(Morpholinomethyl)pyridin-2-yl)-3-((4-(trifluoromethyl)pyridin-2-yl)oxy)benzamide]", "IC50": "> 10000"},
      {"compound": "Oc1ccc(CN2CCOCC2)cc1NCc1cccc(Oc2cc(C(F)(F)F)ccn2)c1", "note": "[Compound 36, 4-(Morpholinomethyl)-2-((3-((4-(trifluoromethyl)pyridin-2-yl)oxy)benzyl)amino)phenol]", "IC50": "808 ± 172"},
      {"compound": "Oc1ccc(CN2CCOCC2)cc1-n1cc(-c2cccc(Oc3cc(C(F)(F)F)ccn3)c2)nn1", "note": "[Compound 37, 4-(Morpholinomethyl)-2-(4-(3-((4-(trifluoromethyl)pyridin-2-yl)oxy)phenyl)-1H-1,2,3-triazol-1-yl)phenol]", "IC50": "21 ± 1.13"}
    ]}
  ]
}
